Measurements published in patent publication US5801183A, “Aza and aza (N-oxy) analogs of glycine/NMDA receptor antagonists” (priority 1995, dated 1998).

Assays:
[1] = tested on: mice; experiment: maximum electroshock-induced seizure (MES) assay in mice; type: in vivo, male Swiss/Webster mice; settings: Mus musculus, iv, drug applied i.v. as an aqueous basic solution, read-out: ED50 as an anticonvulsant in a MES experiment in mice
Excerpt: The anticonvulsant activity of the glycine antagonists may be assessed in the maximum electroshock-induced seizure (MES) assay in mice. Electroshock was applied to male Swiss/Webster mice (20-30 g, Simonsen) through corneal electrodes (Swinyard, E. A., in Anticonvulsant Drugs, Mercier, J., ed., Pergamon Press, Oxford (1973), pp. 47-65). The seizure stimulus parameters were: 50 mA, 60 Hz, rectangular pulse, width 0.8 msec, duration 200 msec. Tonic hind limb extension observed after application of the electrical stimulus was recorded as occurrence of seizure. The drug was applied i.v. as an aqueous basic solution.

[2] = target: T1, NMDA receptor glycine site (Rattus norvegicus, UniProt P35439); experiment: inhibition of [3H]DCKA binding to rat brain membranes
T1 construct: from tissue; host or cells: rat brain membranes
Procedure: (§1) The affinity of the compounds for the NMDA receptor glycine site also was measured by inhibition of [^3 H]DCKA binding to rat brain membranes. See, Canton, T. et al., J. Pharm. Pharmacol. 44:812-816 (1992).

[3] = tested on: glycine binding site of the NMDA receptor; settings: cited from earlier work
[4] = in vivo; cited from earlier work
[5] = target: T2, glycine/NMDA receptor (Rattus norvegicus, UniProt P35439); experiment: affinity at the glycine/NMDA receptor; type: binding
T2 construct: rat brain membrane homogenates that are enriched in NMDA receptors; tissue Pel-Freez, Rogers, Ark; host or cells: frozen rat brain, membrane homogenate
Procedure: as §1
The glycine antagonist potency in vitro may be determined using a 1 μM glycine-stimulated [^3 H]-MK801 binding assay. This assay takes advantage of the fact that the binding of [^3 H]-MK801 to the PCP receptor inside the pore of the NMDA channel is dependent on the presence of both glutamate and glycine. […]
The assay is conducted using rat brain membrane homogenates that are enriched in NMDA receptors. […] The final pellet is suspended in three volumes of 50 mM HEPES, pH 7.4 and the protein concentration is determined with a standard dye-binding protein assay (Bio-Rad, Richmond, Calif.). […]
On the day of the assay, the previously prepared membranes are thawed and 5 mM Tris/HCl buffer, pH 7.4, is added to yield a final protein concentration of 0.156 mg/mL. […] To determine the effect of 1 μM glycine on the binding of [^3 H]-MK801, bound radioactivity in the presence of 10 μM glutamate alone (final concentration) is subtracted from the bound radioactivity in the presence of both 10 μM glutamate and 1 μM glycine (final concentration). […]

[6] = target: PCP receptor; settings: Wong et al., PNAS 83:7104-7108 (1986); cited from earlier work
[7] = tested on: rodents; settings: rodents / animal models; cited from earlier work
[8] = tested on: pigeons; settings: cited from earlier work
[9] = log P (literature); type: physicochemical; settings: from benzene to the named substance

| SMILES | binding affinity for the glycine site (in words) [3] | blood/brain barrier penetration [4] | other results |
| --- | --- | --- | --- |
| N#Cc1c(=O)[nH]c2cc(Cl)c(Cl)cc2[n+]1[O-] [3-Cyano-6,7-dichloro-1,2-dihydroquinoxaline-2-one-4-oxide] |  |  | ED50 [1]: 5 mg/kg; IC50 [2]: 135 nM |
| O=c1[nH]c2ccccc2c(O)c1[N+](=O)[O-] [4-hydroxy-3-nitro-1,2-dihydroquinolin-2-one] | high binding to the glycine receptor |  |  |
| O=C(O)c1cc(O)c2c(Cl)cc(Cl)cc2n1 [5,7-dichlorokynurenic acid] | relatively high receptor binding affinity in vitro | cannot penetrate the blood/brain barrier |  |
| Oc1nc2cc(Cl)cnc2c(O)c1-c1cccc(Oc2ccccc2)c1 [5-Aza-7-chloro-4-hydroxy-3-(m-phenoxyphenyl)quinolin-2-one] |  |  | Ki [5]: 5 nM; ED50 [1]: 3 mg/kg |
| O=C(O)c1cc(O)c2ccc(Cl)cc2n1 [7-Cl-kynurenic acid] | relatively high receptor binding affinity in vitro | cannot penetrate the blood/brain barrier |  |
| NC1CCN(O)C1=O (stereo not drawn) [HA-966] | partial agonist with micromolar affinity for the glycine binding site | sufficiently penetrates the blood/brain barrier |  |
| C[C@]12N[C@H](Cc3ccccc31)c1ccccc12 [MK-801] |  |  | Kd [6]: ~3 nM |
| c1ccc(C2(N3CCCCC3)CCCCC2)cc1 [PCP, phencyclidine] |  |  | PCP-like behavioral effects [7]: behavioral excitation (hyperlocomotion) in rodents; katalepsy in pigeons [8]: characteristic katalepsy in pigeons |
| NCC(=O)O [glycine] |  |  | Kd ([3]; used in Cheng and Prusoff equation, read-out: known affinity for the glycine binding site of the NMDA receptor): 100 nM |
| O=C(O)c1cc2ccccc2[nH]1 [indole-2-carboxylic acid] | relatively high receptor binding affinity in vitro | cannot penetrate the blood/brain barrier |  |
| [O-][n+]1ccccc1 [pyridine N-oxide] |  |  | difference in log P from benzene [9]: -3.84 |
